Measurements as given in paper PMC5920042, “KH176 Safeguards Mitochondrial Diseased Cells from Redox Stress-Induced Cell Death by Interacting with the Thioredoxin System/Peroxiredoxin Enzyme Machinery” (Scientific Reports, 2018).
Entries after “also recorded” stand apart in the source; their conditions may differ.

How the values were obtained:
[1] = system: P2 cell line (Complex I, NDUFS2); experiment: Redox Stress Survival assay (BSO sensitivity); type: cell-based, human; conditions: P2, 24 h
Procedure: (§1) Cells were seeded at a density of 4 × 10^3 cells/well into 96-wells black plates and incubated for 24 h. To induce redox stress, semi-logarithmic dilutions of buthionine sulphoximine (BSO, #B2515, Sigma Aldrich) up to 100 µM were added to the cells in culture medium and incubated for 24 h. Cell viability was assessed by quantification of cellular conversion of Calcein AM into fluorescent Calcein. Briefly, after having discarded the BSO containing medium, cells were washed once with M199 without phenol red and loaded with 2 µM Calcein AM (#65-0853-39, Affimetrix eBioscience) in M199 without phenol red for 25 min. At the end of the incubation period, the excess of the dye was washed with M199 without phenol red and Calcein fluorescence was measured with a scanning microplate reader (BMG FLUOstar Omega; Ex. 480 nm, Em. 520 nm). For compound screening and target identification measurements cells were treated with 200 µM BSO alone or in co-incubation with semi-logarithmic dilutions of the test compound. Additionally, where indicated, increasing doses of Auranofin (AFN, #BML-EI206-0100, Enzo) or Aurothioglucose (ATG, #A0606, Sigma Aldrich) were co-incubated with BSO and the test compound. In all cases, cell viability was assessed 24 h after the treatment.

[2] = system: P6 cell line (Complex I, NDUFS8); experiment: Redox Stress Survival assay (BSO sensitivity); type: cell-based, human; conditions: P6, 24 h
Procedure: as §1

C2 control cell line = experiment: Redox Stress Survival assay (BSO sensitivity); type: cell-based, human; conditions: C2, 24 h
Procedure: as §1

C1 control cell line = experiment: Redox Stress Survival assay (BSO sensitivity); type: cell-based, human; conditions: C1, 24 h
Procedure: as §1

C3 control cell line = experiment: Redox Stress Survival assay (BSO sensitivity); type: cell-based, human; conditions: C3, 24 h
Procedure: as §1

P4 cell line [3] = experiment: Redox Stress Survival assay (BSO-induced cell death, Calcein AM viability); type: cell-based, human; conditions: P4 cells
Procedure: as §1

[4] = system: primary human skin fibroblasts; experiment: CumOOH induced lipid peroxidation (bodipy 581/591 C11); type: cell-based; conditions: 30 µM cumOOH, bodipy 581/591 C11
Procedure: The cells were seeded at a density of 3 × 10^3 cells/well into 96-wells black plates. After 24 h, the cells were coincubated with 500 nM bodipy 581/591 C11 (#D3861, Thermo Fisher) and different amounts of KH compound in M199 without phenol red. This medium was used in all subsequent washes and incubations. After 30 min. incubation the cells were washed twice and subsequently incubated with 30 μM cumene hydroperoxide (cumOOH). For background subtractions cells with the dye but without cumOOH were used. After 30 minutes incubation and two washes oxidized bodipy 581/591 C11 was quantified on an automated bioimager (BD Pathway 855), by using a 20x objective and Ex. 488/10 nm, Em. FURA/FITC. Total cellular fluorescence per well was normalized on the number of cellular pixels/well and normalized on the incubation with probe and cumOOH but without compound (vehicle set as 100%). Experiments were performed at least three times with 3 wells per experiment.

P4 cell line [5] = experiment: Radical-Scavenging Capacity assay (CM-H2DCFDA, H2O2 or KO2); type: cell-based, human; conditions: P4 cells, 100 µM H2O2 or 1 mM KO2 (text: KOH), 3 µM compound
Procedure: Cells were seeded at a density of 4 × 10^3 cells/well into 96-wells black plates. After 24 h the cells were loaded with 5 µM CM-H2DCFDA in M199 without phenol red for 20 min. The dye excess was washed with M199 without phenol red and immediately after, cells were treated acutely with different concentrations of the test compounds in M199 without phenol red. To generate radicals, 100 µM H2O2 or 1 mM KO2 were injected to the compound-treated cells and CM-DCF fluorescence was measured every 2 min for 70 cycles on a scanning microplate reader (BMG FLUOstar Omega; Ex. 480 nm, Em. 520 nm). The area under the generated curves was calculated using the Origin 6.1 software (OriginLab).

P4 cell line [6] = experiment: Cellular ROS assay (DCFH-DA); type: cell-based, human
Procedure: The cells were then treated for 72 h (or shorter as indicated) with culture medium containing semi-logarithmic dilutions of the test compound. Alternatively, 3 × 10^3 cells/well were seeded when cells were treated for 24 h only. At the end of the incubation period, cells were loaded with 40 µM DCFH-DA (#D6883, Sigma-Aldrich). in M199 without phenol red for 30 min. The excess of the dye was washed with ice-cold M199 without phenol red and the cells were lysed with 100 µl/well of ice-cold 0.2% Triton X-100 in M199 without phenol red after 10 min incubation in ice. Cellular debris was spun down by centrifugation at 2600 g, 5 min, +4 °C and 90 µl/well of cell lysate were transferred to a black 96-wells plate and DCF fluorescence was measured on a scanning microplate reader (BMG FLUOstar Omega; Ex. 480 nm, Em. 520 nm).

Compound: CCCCS(=N)(=O)CCC(N)C(=O)O (centres unmarked) [BSO, Buthionine sulphoximine]
- IC50 BSO [1]: n.s.
- IC50 BSO [2]: n.s.
- IC50 BSO (C2 control cell line): n.s.
- IC50 BSO (C1 control cell line): n.s.
- IC50 BSO (C3 control cell line): n.s.
- IC50 (P4 cell line [3]; 24 h BSO up to 100 µM): 3.8 µM

Compound: COc1c(C)c(C)c2c(c1C)CC[C@@](C)(C(=O)N[C@@H]1CCCNC1)O2 [KH176i]
- Effect on CumOOH induced lipid peroxidation [4]: no effect; also recorded: no activity
- Reduction of H2O2-induced radicals and O2.- (CM-H2DCFDA oxidation) (P4 cell line [5]): not
- Rescue of cell viability from BSO-induced death (P4 cell line [3]; 200 µM BSO, 24 h): unable to rescue cell viability
- Activity in the ROS assay (P4 cell line [6]; P4 cells, 24 h compound treatment): inactive

Compound: Cc1c(C)c2c(c(C)c1O)CCC(C)(C(=O)O)O2 (centres unmarked) [Trolox, reference compound]
- EC50 (P4 cell line [3]; Homo sapiens, 200 µM BSO, 24 h): 38 µM
- IC50 (P4 cell line [6]; Homo sapiens, P4 cells, 72 h treatment): 187 µM

Compound: auranofin [AFN, reference compound]
- Effect of thioredoxin reductase inhibition on rescue by KH176(m) (P4 cell line [3]; 200 µM BSO, 100 nM AFN): decrease of the capacity of KH176(m) to rescue the cells
- Effect of thioredoxin reductase inhibition on ROS reduction by KH176m (P4 cell line [6]; 24 hours, 100 nM AFN with 1 µM KH176m, DCFH-DA): did not affect the capacity of KH176m to reduce the DCFH-DA signal
